{
  "source": "patent US20170119693A1",
  "about": "“Methods of Improving Glucose Tolerance, Hair Regrowth, and Bio-Availability” (priority 2015, published 2017)",
  "type_in_all_cases": "in vivo",
  "key": {"[1]": {"tested_on": "female Albino Wistar rats", "experiment": "four month daily treatment study, investigated age related conditions overall", "settings": "summary of the study; effects of ResArgin being more significant than those of resveratrol", "procedure": "(§1) To determine the efficacy of resveratrol-arginine conjugate, six month old female Albino Wistar rats were divided into seven groups (six rats per group) and given the following daily treatment for four months: • Group 1: Control; • Group 2: 25 mg ResArgin/kg body wt; • Group 3: 50 mg ResArgin/kg body wt; • Group 4: 75 mg ResArgin/kg body wt; • Group 5: 25 mg Resveratrol/kg body wt; • Group 6: 50 mg Resveratrol/kg body wt;\nBased on the results of the study performed, the effective dosage of resveratrol arginine conjugate is 10 to 250 mg per kilogram of body weight for a period of at least two weeks."}, "[2]": {"tested_on": "female Albino Wistar rats", "experiment": "hair regrowth assay", "settings": "25, 50, 75 mg/kg body wt daily for four months; dorsal hair plucked 1.5 cm x 1.5 cm, scored two weeks later from digital photographs", "procedure": "as §1\nIn another embodiment, hair regrowth assay was done and quantified. Compared to the Control group, hair regrowth was improved in the ResArgin and resveratrol groups over the experimental period.\nIn the hair regrowth assay, dorsal hair was removed by plucking from a square of approximately 1.5 cm×1.5 cm. Hair growth and re-growth was scored two weeks later on the basis of digital photographs."}, "[3]": {"tested_on": "female Albino Wistar rats", "experiment": "glucose tolerance test", "settings": "25, 50, 75 mg/kg body wt daily for four months; 6 h fast, 2 g/kg intraperitoneally, tail vein blood 0-120 min; p<0.01 ResArgin, p<0.05 resveratrol", "procedure": "as §1\nGroup 7: 75 mg Resveratrol/kg body wt. In one embodiment, glucose tolerance levels were tested via a glucose tolerance test and analysis was performed. Compared to the Control group, glucose tolerance was improved in the ResArgin and resveratrol groups (p<0.01 and p<0.05 respectively) over the experimental period.\nIn one embodiment, glucose tolerance tests were performed after having the rats fast for 6 hours and injecting 2 g/kg body weight intraperitoneally. Blood was then collected from the tail vein at 0, 15, 30, 60 and 120 minutes after injection."}},
  "data": [
    {"molecule": "Oc1ccc(C=Cc2cc(O)cc(O)c2)cc1", "note": "[resveratrol]", "values": [
      {"measurement": "effect on the investigated age related conditions", "setting": "[1]", "value": "significantly improved"},
      {"measurement": "hair regrowth compared to the Control group", "setting": "[2]", "value": "improved"},
      {"measurement": "glucose tolerance compared to the Control group", "setting": "[3]", "value": "improved"}
    ]}
  ]
}
